# In ChEMBL document CHEMBL5226304, “Fused-azepinones: Emerging scaffolds of medicinal importance” (Eur J Med Chem, 2021):
# Experiments:
# [1] = target: Cyclin-dependent kinase 1/cyclin B (Homo sapiens, UniProt P06493); test: Inhibition of CDK1/Cyclin B (unknown origin) in presence of gamma32P-ATP by scintillation counter analysis; format: protein-complex assay
# [2] = target: Cyclin-dependent kinase 5/CDK5 activator 1 (Homo sapiens, UniProt Q00535); test: Inhibition of CDK5/p25 (unknown origin); format: protein-complex assay
# MOLM-13 = test: Antiproliferative activity against human MOLM-13 cells assessed as inhibition of proliferation measured after 96 hrs by alamerBlue assay; format: functional, cell-based
# LAPC4 = test: Antiproliferative activity against human LAPC4 cells assessed as inhibition of proliferation measured after 96 hrs by alamerBlue assay; format: functional, cell-based
# [3] = target: Glycogen synthase kinase-3 beta (Rattus norvegicus, UniProt P18266); test: Inhibition of recombinant recombinant rat GSK3beta using GS-1 peptide as substrate in presence of [gamma-32P]ATP measured after 30 mins incubation by scintillation counting analysis
# L5178Y = test: Cytotoxicity against mouse L5178Y cells by MTT assay; format: functional, cell-based
# [4] = target: Cyclin-dependent kinase 2/cyclin A (Homo sapiens, UniProt P24941); test: Inhibition of CDK2/Cyclin A (unknown origin); format: protein-complex assay
# Casein kinase I = test: Inhibition of CK1 (unknown origin); format: protein assay, Homo sapiens
# CDK9/Cyclin T = CDK9/Cyclin T (Homo sapiens, UniProt P50750); test: Inhibition of CDK9/Cyclin T (unknown origin); format: protein-complex assay
# [5] = target: Dual specificity tyrosine-phosphorylation-regulated kinase 1A (Homo sapiens, UniProt Q13627)
# Description: Inhibition of DYRK1A (unknown origin)
# THP-1 [6] = test: Antiinflammatory activity in human THP-1 cells assessed as inhibition of LPS-stimulated IL2 production; format: functional, cell-based
# THP-1 [7] = test: Antiinflammatory activity in human THP-1 cells assessed as inhibition of LPS-stimulated TNFalpha production; format: functional, cell-based
# Homo sapiens [8] = species on record: Homo sapiens; test: Selectivity ratio of IC50 for Chk1 (unknown origin) to IC50 for (unknown origin)
# [9] = Selectivity index, ratio of IC50 for CDK1/Cycline B (unknown origin) to IC50 for GSK3beta (unknown origin)
# [10] = target: Mitogen-activated protein kinase kinase kinase 7 (Homo sapiens) (UniProt O43318); test: Inhibition of MAP3K7 kinase (unknown origin) at 10 uM relative to control
# Protein kinase C (PKC) = test: Inhibition of Protein kinase C (unknown origin); format: protein assay, Homo sapiens
# KB 3-1 = test: Cytotoxicity against human KB-3-1 cells by MTT assay; format: functional, cell-based
# [11] = target: Serine/threonine-protein kinase Chk1 (Homo sapiens, UniProt O14757); test: Inhibition of Chk1 (unknown origin)
# [12] = system: Human immunodeficiency virus 1; test: Antiviral activity against HIV1 assessed as inhibition of LC5-RIC cells infection at 50 uM relative to control; format: functional
# Integrin alpha-V/beta-3 = Integrin alpha-V/beta-3 (Homo sapiens, UniProt P05106+P06756); test: Antagonist activity against human integrin alphaVbeta3 expressed in CHO-K1 cells measured after 4 hrs by Cell adhesion assay; format: cell-based
# 786-0 = test: Antitumor activity against human 786-0 cells; format: functional
# [13] = Inhibition of MAPKK (unknown origin); set-up: species or system Homo sapiens
# [14] = target: Cyclin-dependent kinase 4/cyclin D1 (Homo sapiens, UniProt P11802); test: Inhibition of CDK4/Cyclin D1 (unknown origin); format: protein-complex assay
# [15] = target: RAF proto-oncogene serine/threonine-protein kinase (Homo sapiens, UniProt P04049); test: Inhibition of c-Raf (unknown origin)
# [16] = Inhibition of cAMP-dependent protein kinase (unknown origin); set-up: species or system Homo sapiens
# [17] = Inhibition of cGMP-dependent protein kinase (unknown origin); set-up: species or system Homo sapiens
# MCF7 = test: Cytotoxicity against human MCF7 cells by MTT assay; format: functional, cell-based
# MDA-MB-231 = test: Cytotoxicity against human MDA-MB-231 cells by MTT assay; format: functional, cell-based
# Homo sapiens [18] = species on record: Homo sapiens; test: Inhibition of MPK (unknown origin) at 10 uM relative to control
# [19] = target: Serine/threonine-protein kinase PLK1 (Homo sapiens) (UniProt P53350); test: Inhibition of PLK1 (unknown origin) at 10 uM relative to control
# [20] = target: Serine/threonine-protein kinase pim-1 (Homo sapiens) (UniProt P11309); test: Inhibition of PIM1 (unknown origin) at 10 uM relative to control
# [21] = target: Mitogen-activated protein kinase kinase kinase 11 (Homo sapiens) (UniProt Q16584); test: Inhibition of MLK3 (unknown origin) at 10 uM relative to control
# [22] = target: MAP/microtubule affinity-regulating kinase 3 (Homo sapiens) (UniProt P27448); test: Inhibition of MARK3 (unknown origin) at 10 uM relative to control
# [23] = target: Aurora kinase B (Homo sapiens) (UniProt Q96GD4); test: Inhibition of Aurora B (unknown origin) at 10 uM relative to control
# Integrin alpha-V/beta-3, sequence (P05106 27-788 limits assumed): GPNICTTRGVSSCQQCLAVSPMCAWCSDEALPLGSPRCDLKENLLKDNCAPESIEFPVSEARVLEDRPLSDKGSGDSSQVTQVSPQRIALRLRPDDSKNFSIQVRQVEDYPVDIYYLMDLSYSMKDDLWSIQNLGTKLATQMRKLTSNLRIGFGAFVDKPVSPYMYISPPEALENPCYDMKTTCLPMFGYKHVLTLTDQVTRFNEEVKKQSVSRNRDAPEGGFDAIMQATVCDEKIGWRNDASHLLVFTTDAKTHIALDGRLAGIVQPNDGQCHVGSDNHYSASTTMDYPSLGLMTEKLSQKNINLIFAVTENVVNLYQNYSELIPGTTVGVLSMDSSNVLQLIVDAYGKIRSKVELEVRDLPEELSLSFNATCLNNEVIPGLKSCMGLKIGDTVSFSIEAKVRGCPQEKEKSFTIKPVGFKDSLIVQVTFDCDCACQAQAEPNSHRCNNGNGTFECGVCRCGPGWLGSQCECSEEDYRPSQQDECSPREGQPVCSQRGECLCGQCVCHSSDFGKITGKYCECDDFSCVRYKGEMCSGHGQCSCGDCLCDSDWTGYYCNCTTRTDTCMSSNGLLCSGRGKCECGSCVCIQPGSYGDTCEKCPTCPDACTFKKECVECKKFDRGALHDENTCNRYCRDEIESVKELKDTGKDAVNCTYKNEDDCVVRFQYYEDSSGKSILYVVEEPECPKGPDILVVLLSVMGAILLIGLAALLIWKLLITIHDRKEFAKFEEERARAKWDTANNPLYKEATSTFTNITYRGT
# Integrin alpha-V/beta-3, sequence (P06756 31-889 limits assumed): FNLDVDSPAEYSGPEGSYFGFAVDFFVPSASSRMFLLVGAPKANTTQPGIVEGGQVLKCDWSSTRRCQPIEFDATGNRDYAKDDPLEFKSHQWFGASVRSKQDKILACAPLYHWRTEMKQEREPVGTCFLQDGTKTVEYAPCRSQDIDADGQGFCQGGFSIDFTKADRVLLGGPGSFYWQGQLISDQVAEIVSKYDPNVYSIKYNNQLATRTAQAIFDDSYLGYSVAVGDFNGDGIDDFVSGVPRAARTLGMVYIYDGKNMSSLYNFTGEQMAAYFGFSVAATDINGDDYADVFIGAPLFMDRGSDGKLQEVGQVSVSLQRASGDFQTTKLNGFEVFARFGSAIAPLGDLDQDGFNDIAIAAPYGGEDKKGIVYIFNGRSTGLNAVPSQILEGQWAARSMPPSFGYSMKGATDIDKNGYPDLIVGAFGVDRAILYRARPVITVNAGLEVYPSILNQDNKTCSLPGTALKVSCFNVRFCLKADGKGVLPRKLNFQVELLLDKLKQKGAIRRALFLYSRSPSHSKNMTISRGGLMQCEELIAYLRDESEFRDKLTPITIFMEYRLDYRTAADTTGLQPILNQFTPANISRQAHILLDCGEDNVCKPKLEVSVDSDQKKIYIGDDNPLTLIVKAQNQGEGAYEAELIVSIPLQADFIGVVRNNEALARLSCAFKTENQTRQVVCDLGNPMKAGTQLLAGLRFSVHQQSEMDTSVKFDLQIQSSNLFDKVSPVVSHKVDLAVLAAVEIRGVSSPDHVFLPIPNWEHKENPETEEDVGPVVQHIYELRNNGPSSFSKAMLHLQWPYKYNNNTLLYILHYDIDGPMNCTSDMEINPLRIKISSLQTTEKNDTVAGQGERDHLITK
# Integrin alpha-V/beta-3, sequence (P06756 891-1048 limits assumed): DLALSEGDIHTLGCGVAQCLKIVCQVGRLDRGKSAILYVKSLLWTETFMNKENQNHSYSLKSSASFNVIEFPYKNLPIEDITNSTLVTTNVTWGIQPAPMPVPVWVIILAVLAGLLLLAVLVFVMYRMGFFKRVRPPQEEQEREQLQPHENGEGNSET
# Cyclin-dependent kinase 5/CDK5 activator 1, sequence (Q00535 whole entry): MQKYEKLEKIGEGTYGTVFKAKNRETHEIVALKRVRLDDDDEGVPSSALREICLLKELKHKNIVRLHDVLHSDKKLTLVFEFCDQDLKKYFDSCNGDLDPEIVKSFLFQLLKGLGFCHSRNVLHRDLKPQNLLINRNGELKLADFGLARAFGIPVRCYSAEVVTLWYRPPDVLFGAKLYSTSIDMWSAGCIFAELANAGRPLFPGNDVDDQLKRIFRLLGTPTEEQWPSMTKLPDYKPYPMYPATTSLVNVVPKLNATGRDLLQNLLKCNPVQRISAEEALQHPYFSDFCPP
# Cyclin-dependent kinase 5/CDK5 activator 1, sequence (Q15078 whole entry, further chain): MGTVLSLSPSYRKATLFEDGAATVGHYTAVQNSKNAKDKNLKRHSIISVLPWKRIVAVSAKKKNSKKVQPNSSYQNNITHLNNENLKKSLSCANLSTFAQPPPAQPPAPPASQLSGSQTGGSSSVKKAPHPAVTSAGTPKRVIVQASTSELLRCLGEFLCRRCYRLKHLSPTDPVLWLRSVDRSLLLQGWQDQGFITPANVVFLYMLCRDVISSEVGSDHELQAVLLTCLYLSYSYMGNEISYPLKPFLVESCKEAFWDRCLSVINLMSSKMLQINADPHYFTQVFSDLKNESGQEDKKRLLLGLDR
# Glycogen synthase kinase-3 beta, sequence (P18266 whole entry): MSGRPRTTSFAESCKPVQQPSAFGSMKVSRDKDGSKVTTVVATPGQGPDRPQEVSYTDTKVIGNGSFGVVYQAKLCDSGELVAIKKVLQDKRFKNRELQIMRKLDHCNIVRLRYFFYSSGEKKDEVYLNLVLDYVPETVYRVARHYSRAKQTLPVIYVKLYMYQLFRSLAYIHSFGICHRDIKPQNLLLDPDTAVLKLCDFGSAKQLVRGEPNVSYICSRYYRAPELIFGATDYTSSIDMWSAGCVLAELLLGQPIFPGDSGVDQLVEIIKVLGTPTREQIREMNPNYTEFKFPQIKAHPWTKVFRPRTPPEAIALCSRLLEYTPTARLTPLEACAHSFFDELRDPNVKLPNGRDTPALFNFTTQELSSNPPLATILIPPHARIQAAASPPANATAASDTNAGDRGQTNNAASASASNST
# CDK9/Cyclin T, sequence (O60563 whole entry): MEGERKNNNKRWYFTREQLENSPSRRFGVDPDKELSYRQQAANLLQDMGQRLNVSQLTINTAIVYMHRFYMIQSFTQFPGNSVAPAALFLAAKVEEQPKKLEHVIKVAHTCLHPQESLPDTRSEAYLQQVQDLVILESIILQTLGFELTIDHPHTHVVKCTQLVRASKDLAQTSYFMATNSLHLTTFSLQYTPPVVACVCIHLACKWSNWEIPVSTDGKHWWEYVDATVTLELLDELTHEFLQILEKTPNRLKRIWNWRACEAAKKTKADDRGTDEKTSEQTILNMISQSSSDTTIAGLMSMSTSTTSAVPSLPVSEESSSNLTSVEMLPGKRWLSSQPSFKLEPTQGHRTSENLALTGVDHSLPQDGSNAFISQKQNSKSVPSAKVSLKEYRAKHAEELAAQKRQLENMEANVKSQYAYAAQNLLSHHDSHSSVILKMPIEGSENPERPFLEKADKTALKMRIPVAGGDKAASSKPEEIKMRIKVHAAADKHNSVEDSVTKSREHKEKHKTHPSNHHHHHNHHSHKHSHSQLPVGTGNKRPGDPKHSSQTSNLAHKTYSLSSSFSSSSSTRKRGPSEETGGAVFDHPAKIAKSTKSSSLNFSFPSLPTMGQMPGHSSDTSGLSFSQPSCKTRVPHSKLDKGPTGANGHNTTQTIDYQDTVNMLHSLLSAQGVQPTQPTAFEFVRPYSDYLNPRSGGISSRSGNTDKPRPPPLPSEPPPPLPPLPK
# CDK9/Cyclin T, sequence (P50750 whole entry): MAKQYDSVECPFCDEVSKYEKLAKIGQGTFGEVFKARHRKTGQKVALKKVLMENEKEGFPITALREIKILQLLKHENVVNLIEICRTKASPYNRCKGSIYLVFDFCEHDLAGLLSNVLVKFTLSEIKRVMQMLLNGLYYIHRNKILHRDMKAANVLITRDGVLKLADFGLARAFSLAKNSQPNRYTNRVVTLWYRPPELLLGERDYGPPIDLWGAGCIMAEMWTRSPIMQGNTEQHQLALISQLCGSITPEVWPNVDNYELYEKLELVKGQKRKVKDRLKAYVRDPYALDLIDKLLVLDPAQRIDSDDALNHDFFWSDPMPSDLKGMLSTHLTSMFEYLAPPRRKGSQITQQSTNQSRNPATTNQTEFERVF
# CDK9/Cyclin T, sequence (O60583 whole entry, further chain): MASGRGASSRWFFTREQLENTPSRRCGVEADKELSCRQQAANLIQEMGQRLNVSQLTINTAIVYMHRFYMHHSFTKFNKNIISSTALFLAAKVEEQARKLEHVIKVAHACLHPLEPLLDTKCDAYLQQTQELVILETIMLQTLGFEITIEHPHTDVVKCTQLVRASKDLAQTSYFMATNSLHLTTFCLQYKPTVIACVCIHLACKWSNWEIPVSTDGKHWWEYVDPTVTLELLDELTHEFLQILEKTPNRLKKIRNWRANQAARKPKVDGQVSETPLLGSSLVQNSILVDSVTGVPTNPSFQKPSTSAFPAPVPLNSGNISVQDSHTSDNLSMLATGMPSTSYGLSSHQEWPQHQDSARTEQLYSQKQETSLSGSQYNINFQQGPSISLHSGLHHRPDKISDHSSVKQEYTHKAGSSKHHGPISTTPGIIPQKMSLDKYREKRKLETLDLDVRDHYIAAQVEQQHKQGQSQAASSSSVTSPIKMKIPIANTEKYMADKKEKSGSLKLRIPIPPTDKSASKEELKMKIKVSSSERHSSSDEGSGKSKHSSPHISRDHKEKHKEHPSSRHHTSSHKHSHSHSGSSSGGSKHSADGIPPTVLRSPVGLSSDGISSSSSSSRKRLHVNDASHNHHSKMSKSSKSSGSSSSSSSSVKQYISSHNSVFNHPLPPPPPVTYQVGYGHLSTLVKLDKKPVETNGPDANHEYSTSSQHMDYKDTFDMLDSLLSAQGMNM
# Serine/threonine-protein kinase pim-1 (Homo sapiens), sequence (P11309 whole entry, looked up): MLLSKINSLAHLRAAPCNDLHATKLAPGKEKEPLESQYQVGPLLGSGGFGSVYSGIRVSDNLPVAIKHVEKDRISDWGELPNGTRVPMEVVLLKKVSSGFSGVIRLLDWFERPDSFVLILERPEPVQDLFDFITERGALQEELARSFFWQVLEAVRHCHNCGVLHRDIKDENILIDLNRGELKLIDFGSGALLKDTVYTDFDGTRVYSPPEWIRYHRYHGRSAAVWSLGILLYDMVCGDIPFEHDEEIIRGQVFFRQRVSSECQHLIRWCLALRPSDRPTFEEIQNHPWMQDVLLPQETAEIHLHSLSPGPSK
structure (smiles),measurement,setting,value
NC1=NC(=O)/C(=C2\CCNC(=O)c3[nH]c4ccc(Br)cc4c32)N1,IC50,[1],1 µM
same,IC50,[2],0.213 µM
Cc1nnc2n1-c1ccccc1C(c1ccc(Cl)cc1)=C[C@@H]2CC(=O)Nc1ccc2c(c1)NC(=O)C2,IC50,MOLM-13,0.17 µM
same,IC50,LAPC4,0.08 µM
Cc1nnc(C[C@H]2C=C(c3ccc(Cl)cc3)c3ccccc3-n3c(C)nnc32)o1,IC50,MOLM-13,0.12 µM
same,IC50,LAPC4,0.04 µM
NC1=NC(=O)/C(=C2\CCNC(=O)c3[nH]cc(Br)c32)N1,IC50,[1],1.5 µM
same,IC50,[2],0.079 µM
O=C1Nc2ccccc2/C1=C1/Nc2ccccc2/C1=N\O,IC50,[3],0.022 µM
CC(=O)NC1=NC(=O)/C(=C2\CCNC(=O)c3[nH]c(Br)c(Br)c32)N1,IC50,[1],1.5 µM
same,IC50,[2],0.533 µM
NC1=NC(=O)/C(=C2\CCNC(=O)c3[nH]c4ccc(Cl)cc4c32)N1,IC50,[1],2.3 µM
same,IC50,[2],0.191 µM
NC1=NC(=O)/C(=C2\CCNC(=O)c3[nH]c(Cl)c(Cl)c32)N1,IC50,[1],0.22 µM
same,IC50,[2],0.062 µM
Nc1ncc2c(n1)CNC(=O)c1[nH]c(Br)c(Br)c1-2,EC50,L5178Y,9 mg/L
O=C1Cc2c([nH]c3cc[n+]([O-])cc23)-c2ccccc2N1,IC50,[1],> 10 µM
same,IC50,[4],> 10 µM
same,IC50,Casein kinase I,> 10 µM
same,IC50,[2],> 10 µM
same,IC50,CDK9/Cyclin T,7.4 µM
same,IC50,[5],> 10 µM
NC1=NC(=O)/C(=C2\CCNC(=O)c3[nH]c4ccccc4c32)N1,IC50,[1],0.8 µM
same,IC50,[2],0.177 µM
same,IC50,THP-1 [6],3.5 µM
same,IC50,THP-1 [7],8.2 µM
same,Ratio IC50,Homo sapiens [8],29
O=C1Cc2c([nH]c3ccc(Br)cc23)-c2cccnc2N1,IC50,[2],6 µM
same,Selectivity Index,[9],1.4
NCCCCOc1ccc2c(c1)-c1[nH]c3ccc(Br)cc3c1CC(=O)N2,IC50,[3],0.04 µM
O=C1NCC/C(=N\Nc2cccnc2)c2c1[nH]c1ccc(F)cc21,IC50,[2],0.012 µM
N#Cc1ccc2[nH]c3c(c2c1)CC(=O)Nc1cccnc1-3 [CAZPAULLONE],IC50,[1],0.5 µM
same,IC50,[4],0.5 µM
CCOC(=O)c1[nH]cc2c1-c1[nH]c3ccccc3c1C(=O)NC2,inhibition,[10],78%
O=C1NC(=O)/C(=C2\CCNC(=O)c3[nH]c(Br)cc32)N1 [SPONGIACIDIN D],IC50,[1],4 µM
same,IC50,Protein kinase C (PKC),9 µM
same,IC50,Casein kinase I,4.5 µM
same,IC50,[2],7 µM
O=c1[nH]c2ccccc2c2c1[nH]c1ccccc12,IC50,KB 3-1,6.5 µM
CCCNC1=NC(=O)/C(=C2\CCNC(=O)c3[nH]c(-c4ccccc4)cc32)N1,IC50,[11],> 1 µM
same,Ratio IC50,Homo sapiens [8],> 64
Nc1ncc(/C=C/CNC(=O)c2cc(Br)c(Br)[nH]2)[nH]1 [OROIDIN],inhibition at 50 µM,[12],50%
COc1ccc2c(c1)C(CC(=O)O)CCC(=O)N2CC(=O)NC[C@H]1CC[C@H](Nc2nc3ccccc3[nH]2)CC1 (some centres undefined),IC50,Integrin alpha-V/beta-3,0.26 nM
O=C(O)CC1CCC(=O)N(CC(=O)NCc2ccc(Nc3nc4ccccc4[nH]3)cc2)c2ccccc21 (centres undefined),IC50,Integrin alpha-V/beta-3,0.5 nM
O=C1N=C(NCc2ccccc2)N/C1=C1/CCNC(=O)c2[nH]c(-c3ccccc3)cc21,Ratio IC50,Homo sapiens [8],32
COc1ccc(-c2cc3c([nH]2)C(=O)NCC/C3=C2/NC(N)=NC2=O)cc1OC,Ratio IC50,Homo sapiens [8],111
O=C1Cc2c([nH]c3ccc(Br)cc23)-c2sccc2N1,IC50,[2],0.12 µM
O=C1Cc2c(-c3ccccc3)cc(-c3ccco3)nc2-c2ccccc2N1,GI50,786-0,6.6 µM
CCNC1=NC(=O)/C(=C2\CCNC(=O)c3[nH]c(Br)c(Br)c32)N1,IC50,[1],> 10 µM
same,IC50,[2],9.12 µM
O=C1NCC/C(=N\Nc2ccc(Cl)cn2)c2c1[nH]c1ccc(F)cc21,IC50,[2],0.075 µM
O=C(O)CC1CCC(=O)N(CC(=O)NC[C@H]2CC[C@H](Nc3nc4ccccc4[nH]3)CC2)c2ccccc21 (some centres undefined),IC50,Integrin alpha-V/beta-3,0.04 nM
O=C1NCC/C(=N\Nc2ccccn2)c2c1[nH]c(Br)c2Br,IC50,[2],10.4 µM
NC1=NC(=O)/C(=C2\CCNC(=O)c3[nH]c(Br)c(Br)c32)N1,IC50,[1],0.53 µM
same,IC50,[2],0.056 µM
Nc1ncc(C2=CCNC(=O)c3[nH]c(Br)c(Br)c32)[nH]1 [STEVENSINE],EC50,L5178Y,3.5 mg/L
NC1=NC(=O)/C(=C2\CCNC(=O)c3[nH]c4ccc(F)cc4c32)N1,IC50,[1],0.55 µM
same,IC50,[2],0.177 µM
O=C1Cc2c([nH]c3ccc(Br)cc23)-c2ccccc2N1 [KENPAULLONE],IC50,[13],> 100 µM
same,IC50,[14],> 100 µM
same,IC50,[15],38 µM
same,IC50,[16],> 1000 µM
same,IC50,[17],> 1000 µM
O=C1Cc2c(-c3ccccc3)cc(-c3ccc(Cl)cc3)nc2-c2ccccc2N1,GI50,786-0,1.7 µM
O=C1NC(=O)/C(=C2\CCNC(=O)c3[nH]ccc32)N1 [SPONGIACIDIN C],IC50,Protein kinase C (PKC),22 µM
O=C1NCCCc2ccccc2-c2c1[nH]c1ccccc21,IC50,KB 3-1,8 µM
O=C1Cc2c([nH]c3cc[n+](Cc4ccccc4)cc23)-c2ccccc2N1.[Br-],IC50,[4],6.2 µM
same,IC50,Casein kinase I,> 10 µM
same,IC50,[2],7.3 µM
same,IC50,CDK9/Cyclin T,0.24 µM
same,IC50,[5],> 10 µM
CCOC(=O)C[C@H]1C=C(c2ccc(Cl)cc2)c2ccccc2-n2c(C)nnc21,IC50,MOLM-13,0.12 µM
same,IC50,LAPC4,0.08 µM
CNC1=NC(=O)/C(=C2\CCNC(=O)c3[nH]c(-c4ccccc4)cc32)N1,Ratio IC50,Homo sapiens [8],38
O=C1NCC/C(=N\Nc2cccnc2Cl)c2c1[nH]c1ccc(F)cc21,IC50,[2],0.012 µM
COc1ccc2c3c([nH]c2c1)C(=O)NCc1ccccc1-3,IC50,MCF7,4 µM
same,IC50,MDA-MB-231,4 µM
O=C1Cc2c([nH]c3ccc([N+](=O)[O-])cc23)-c2ccccc2N1 [ALSTERPAULLONE],IC50,[13],> 100 µM
same,IC50,[14],> 10 µM
same,IC50,[15],> 10 µM
same,IC50,[16],7 µM
same,IC50,[17],> 100 µM
CCOC(=O)c1cc2c([nH]1)-c1[nH]c3ccccc3c1C(=O)NC2,inhibition,Homo sapiens [18],50%
same,inhibition,[19],50%
same,inhibition,[20],50%
same,inhibition,[21],50%
same,inhibition,[22],50%
same,inhibition,[23],50%
NC1=NC(=O)/C(=C2\CCNC(=O)c3[nH]c(-c4ccccc4)cc32)N1,Ratio IC50,Homo sapiens [8],66
O=C1Cc2c([nH]c3ccncc23)-c2ccccc2N1,IC50,[1],2.1 µM
same,IC50,Casein kinase I,> 10 µM
O=C1Cc2c(-c3ccco3)cc(-c3ccccc3)nc2-c2ccccc2N1,GI50,786-0,5.5 µM
O=C1NCc2ccccc2-c2c1[nH]c1ccccc21,IC50,MCF7,0.6 µM
same,IC50,MDA-MB-231,0.6 µM
